In patent publication US11865183B2, “Conjugates and conjugating reagents comprising a linker that includes at least two (−CH2—CH2—O—) units in a ring” (priority 2016, dated 2024):
Values joined by “and” are separate entries in the source; they are usually repeats but may differ in a detail not shown here. Equal entries are not always repeated. Non-standard residues stand in square brackets, D forms with d. Residues, ends and D or L forms follow the SMILES beside them. *: point of attachment. Dolaproine = CO[C@@H]([C@@H]1CCCN1)[C@@H](C)C(=O)O; Dil = CC[C@H](C)[C@H](NC)[C@@H](CC(=O)O)OC; X1 = C[C@@H](N*)[C@@H](O)c1ccccc1; NMeV = CN[C@H](C(=O)O)C(C)C

Tests used:
[1] = test system: Karpas 299 cells (CD30); assay: In vitro cell viability assay (Cell-Titer Glo), Karpas 299; type: cell-based, Human; conditions: Karpas 299, 96 h treatment
Excerpt: Viability was expressed as % of untreated cells and calculated using the following formula: […]

[2] = test system: LNCaP cells (PSMA); assay: In vitro cell viability assay (Cell-Titer Glo), LNCaP; type: cell-based; conditions: 96 h treatment
Excerpt: (§1) Loss of tumour cell viability following treatment with cytotoxic drugs in vitro can be measured by growing cell lines in the presence of increasing concentrations of drug and quantifying the loss of proliferation or metabolic activity using Cell-Titer Glo® Luminescent reagent (Promega). The protocol for PSMA and CD30 overexpressing cell lines describes cell seeding, drug treatment and determination of the cell viability in reference to untreated cells based on ATP synthesis, which is directly correlated to the number of cells present in the well.
(§2) The cell lines listed in Table 2 were maintained following the suppliers' recommendations.
(§3) Adherent PSMA-positive LNCaP and C4-2 cells were detached with TrypLE and resuspended in complete medium. Cells were counted using disposable Neubauer counting chambers and cell density adjusted to 10×10^4 cells/mL for LNCaP and 2×10^4 cells/mL for C4-2, respectively. […]
(§4) The cell viability assay was carried out using the Cell-Titer Glo® Luminescence reagent, as described by the manufacturer's instructions, (Promega Corp. Technical Bulletin TB288; Lewis Phillips G. D, Cancer Res 2008; 68:9280-9290).
(§5) Luminescence was recorded using a Molecular Devices Spectramax i3x plate reader and data subsequently analysed using GraphPad Prism four parameter non-linear regression model. […]

[3] = test system: C4-2 cells (PSMA); assay: In vitro cell viability assay (Cell-Titer Glo), C4-2; type: cell-based; conditions: C4-2, 96 h treatment
Excerpt: as §1, §2, §3, §4, §5

[4] = test system: Karpas-299 cells (T-anaplastic large cell lymphoma, ALCL); assay: Karpas-299 mouse xenograft study; type: in vivo, CB17-SCID mice; conditions: single i.v. 1 mg/kg on day 12, groups of eight mice
Protocol: Healthy female CB17-SCID mice (CBySmn.CB17-Prkdcscid/J, Charles River Laboratories) with an average body weight of 18.1 g were used for cell inoculation (Day 0). 24 to 72 h prior to tumour cell injection, the mice were γ-irradiated (1.44 Gy, ^60Co). The animals were maintained in SPF health status according to the FELASA guidelines in housing rooms under controlled environmental conditions.
Tumours were induced by subcutaneous injection of 10^7 Karpas-299 cells (T-anaplastic large cell lymphoma, ALCL) in 200 μL of RPMI 1640 into the right flank. Tumours were measured twice a week with calipers, and the volume was estimated using the formula: […]
Twelve days after tumour implantation (Day 12), the animals were randomised into groups of eight mice using Vivo manager® software (211 mm^3 mean tumour volume) and treatment was initiated. The animals from the vehicle group received a single intravenous (i.v.) injection of PBS. The treated groups were dosed with a single i.v. injection of ADC at 0.8 mg/kg, or Adcetris© (brentuximab vedotin) at 1 mg/kg.
Treatment tolerability was assessed by bi-weekly body weight measurement and daily observation for clinical signs of treatment-related side effects. Mice were euthanized when a humane endpoint was reached (e.g. 1,600 mm^3 tumour volume) or after a maximum of 9 weeks post-dosing. Asterisks within the graphs indicate where animals were euthanized. […]

| Molecule | IC50 [1] | IC50 [2] [nM] | IC50 [3] [nM] | Animals with tumour re-growth ([4]; after day 20) | Animals with no measureable tumour at end of study (day 71) [4] |
| --- | --- | --- | --- | --- | --- |
| CC[C@H](C)[C@@H]([C@@H](CC(=O)N1CCC[C@H]1[C@H](OC)[C@@H](C)C(=O)N[C@H](C)[C@@H](O)c1ccccc1)OC)N(C)C(=O)[C@@H](NC(=O)[C@@H](NC)C(C)C)C(C)C [MMAE, monomethyl auristatin E] (H-[NMeV]V[Dil][Dolaproine]-X1) | 0.15 nM and 0.2 nM | 2.14 | 0.71 |  |  |
| brentuximab vedotin [Adcetris®] |  |  |  | 7/8 | 1/8 |
